Format: physicochemical
Method: The unexpected solvent synergism between alachlor, metribuzin and chlorobenzene is illustrated in the Table below. […] When metribuzin is the only material in chlorobenzene only 4% can be held in solution at -6° C. This is equivalent to about 0.35 lbs. metrubuzin/gallon. Solutions more concentrated than that could not be stored at the commercially important warehousing conditions at or near the conventional freezing temperatures (32° F. or 0° C.). […] These concentrations represent 0.8 lbs. of metribuzin and 3.2 lbs. of alachlor per gallon.
SOLUBILITY OF METRIBUZIN AT LOW TEMPERATURES IN
LASSO* AND/OR CHLOROBENZENE

[1] = metribuzin the only material in chlorobenzene, at -6° C.

Q: What does the source list for CSc1nnc(C(C)(C)C)c(=O)n1N [Metribuzin, 4-amino-6-t-butyl-3-(methylthio)-1,2,4-triazin-5-one]?
A: Incipient Crystallization Temperature (4% metribuzin, 0% alachlor, solvent chlorobenzene): -6 °C; amount of metribuzin that can be held in solution [1]: 4%; amount of metribuzin that can be held in solution, equivalent [1]: about 0.35 lbs. metrubuzin/gallon
